Experimental data published in patent US6869945B2, “Pyrrolyl-and imidazolyl-acid amide derivatives useful as inhibitors of PDE4 isozymes” (Pfizer Inc, priority 2001, dated 2005).
Entries after “also recorded” stand apart in the source; their conditions may differ. Each block holds one compound with its values, some of them ahead of it.

What was measured:
[1] = in vivo; cited from earlier work
[2] = tested on: PDE4; conditions: catalytic site (Sc); cited from earlier work
[3] = cited from earlier work
[4] = 54 subjects; cited from earlier work
[5] = tested on: rhinorrhea in the antigen-challenged pig; conditions: cited from earlier work
[6] = tested on: LPS-stimulated ex vivo TNF release and PHA induced lymphocyte proliferation; conditions: oral dose of 300 mg, cited from earlier work
[7] = tested on: guinea-pig trachea; conditions: cited from earlier work
[8] = tested on: guinea-pig macrophage PDE4; conditions: cited from earlier work
[9] = tested on: dextran sulfate induced colitis; conditions: cited from earlier work; for effects in dextran sulfate induced colitis: rat
[10] = 35 rheumatoid arthritis patients, t.i.d.; cited from earlier work
[11] = tested on: TNF-α mRNA expression; conditions: mouse, in vivo; cited from earlier work
[12] = tested on: psoriatic epidermal slices and keratomed psoriatic epidermal slices; conditions: cited from earlier work
[13] = in vivo; cited from earlier work; remark: listed apart in the source
[14] = tested on: epidermal basal cells; conditions: primary culture; cited from earlier work
[15] = tested on: endotoxin-induced acute renal failure; conditions: cited from earlier work
[16] = tested on: human peripheral blood mononuclear cells; conditions: cited from earlier work
[17] = 15 mg twice a day for six weeks; cited from earlier work
[18] = tested on: isolated pulmonary artery rings; conditions: normal rats and rats with hypoxia-induced pulmonary hypertension; cited from earlier work
[19] = tested on: collagen II induced arthritis; conditions: 2 mg/kg twice daily for five days before the onset of arthritis; cited from earlier work
[20] = tested on: experimental allergic encephalomyelitis; conditions: in vivo; cited from earlier work
[21] = tested on: croton oil-induced ear inflammation; conditions: mouse; cited from earlier work

Structure (SMILES): Nc1nc2c([nH]1)c(=O)n(CC1CC1)c(=O)n2CC1CC1 [BRL-61,063, cipamfylline]
emesis / nausea and vomiting [1]: adverse events of nausea and vomiting

Structure (SMILES): COc1ccc([C@H](Cc2ccncc2)c2ccccc2)cc1OC1CCCC1 [CDP840]
potency at the Sc relative to SB-207,499 [2]: significantly higher potency | late reactions to inhaled allergen / late-phase response ([3]; patients with bronchial asthma, oral): suppression; also recorded: significant inhibition | adverse events ([3]; treatment of asthma): without any adverse events of nausea or headache

Structure (SMILES): Cc1cc2c3c(c1)C(c1ccccc1)=N[C@@H](NC(=O)c1ccncc1)C(=O)N3CC2 [CI-1018]
doses at which no adverse events were reported [4]: up to 400 mg

melting point: 117 to 118 °C
Structure (SMILES): CC(C)(O)c1ccc(CNC(=O)c2scnc2Oc2ccc3c(c2)OCO3)c(F)c1 [Example 5, 4-(Benzo[1,3]dioxol-5-yloxy)-thiazole-5-carboxylic acid 2-fluoro-4-(1-hydroxy-1-methyl-ethyl)-benzylamide]

Structure (SMILES): CCCC1C(=O)C2=C(C(CC)=NC2C)c2nc(OC)ccc21 [Example D-22888]
rhinorrhea ([5]; antigen-challenged pig): inhibit rhinorrhea | anti-allergic effect ([5]; pig, in vivo): strong anti-allergic affect

Structure (SMILES): CCNc1ncn(Cc2ccc(OC)c(OC3CCCC3)c2)c2nc(C(C)C)nc1-2 [Example V-11294A]
reduction of TNF levels ([6]; LPS-stimulated ex vivo TNF release): effective | reduction of lymphocyte proliferation ([6]; PHA induced): effective

Structure (SMILES): O=S1(=O)CCN(c2nc(NC3CC3)nc(C3CC3)n2)C1 [Formula (0.0.56)]
relaxant activity in a guinea-pig trachea model [7]: potent relaxant agents

Structure (SMILES): CC1CC1c1nc(NC2CC2)nc(N2CCOCC2)n1 (centres unmarked) [Formula (0.0.57)]
relaxant activity in a guinea-pig trachea model [7]: potent relaxant agents

Structure (SMILES): COc1ccc(S(=O)(=O)C(CCCCc2ccccc2)CC(=O)NO)cc1OC (centres unmarked) [Formula (0.1.36)]
IC50 [8]: 0.001 µM

Structure (SMILES): COc1ccc(S(=O)(=O)C(CCCCc2ccccc2)C(C)C(=O)NO)cc1 (centres unmarked) [Formula (0.1.37)]
IC50 [8]: 0.03 µM

Structure (SMILES): CCCn1c(=O)c2[nH]cnc2n(-c2ccc(Cl)cc2)c1=O [LAS31025]
effects in dextran sulfate induced colitis [9]: beneficial effects comparable to prednisolone

Structure (SMILES): COc1ccc(C(=O)Nc2c(Cl)cncc2Cl)cc1OC1CCCC1 [RP73401]
clinical effect, with reduction in C-reactive protein and IL-6 serum levels [10]: positive trend towards clinical improvement | TNF-α mRNA expression at the pannus/cartilage interface of paw joints [11]: decrease

Structure (SMILES): COc1ccc(CC2CNC(=O)N2)cc1OC1CCCC1 (centres unmarked) [Ro 20-1724]
cAMP concentrations over controls [12]: very marked elevation | adverse effects [13]: without adverse systemic or cutaneous effects | psoriatic lesions compared with vehicle [13]: improve psoriatic lesions | increase in cAMP concentrations [14]: three-fold increase

Structure (SMILES): COc1ccc(CC2CNC(=O)N2)cc1OC1CCCC1 (centres unmarked) [Ro-201724]
endotoxin-induced increases in renal vascular resistance and decreases in renal blood flow and glomerular filtration rate ([15]; post-treatment at 10 μg/kg/min): markedly attenuates | urinary cAMP excretion ([15]; post-treatment at 10 μg/kg/min): significantly increases | survival rates for endotoxin-treated rats ([15]; rat, in vivo): improve survival rates | proliferation of HPBM from normal patients and subjects with atopic dermatitis [16]: concentration-related inhibition

Structure (SMILES): COc1ccc([C@]2(C#N)CC[C@@H](C(=O)O)CC2)cc1OC1CCCC1 [SB-207,499]
FEV1 and forced vital capacity (FVC) [17]: increrases

Structure (SMILES): CCCn1c(=O)c2[nH]cnc2n(-c2ccc(Cl)cc2)c1=O [arofylline]
effects in models of colitis in the rat ([9]; in vivo): beneficial effects

Structure (SMILES): CCCCn1c(=O)c2c(ncn2CC(C)=O)n(CCCC)c1=O [denbufylline]
proliferation of HPBM from normal patients and subjects with atopic dermatitis [16]: concentration-related inhibition

Structure (SMILES): Cc1[nH]c(=O)c(C#N)cc1-c1ccncc1 [milrinone]
effect on relaxation of pulmonary artery rings [18]: same effect

Structure (SMILES): COc1ccc(C2CNC(=O)C2)cc1OC1CCCC1 (centres unmarked) [rolipram]
appearance of arthritic symptoms [19]: significantly delayed | effects in dextran sulfate induced colitis [9]: beneficial effects comparable to prednisolone | effect on relaxation of pulmonary artery rings [18]: potentiates the relaxant activities of isoproterenol and forskolin | clinical signs and MRI imaging [20]: suppress the appearance of clinical signs and abolish abnormalities in MRI imaging | lowest topical dose inhibiting croton oil-induced ear inflammation [21]: 0.03 mg per ear | proliferation of HPBM from normal patients and subjects with atopic dermatitis [16]: concentration-related inhibition
